Patent US20180177890A1, “LIGAND-CYTOTOXIC DRUG CONJUGATE, PREPARATION METHOD THEREOF, AND USE THEREOF” (priority 2015, published 2018)
Numbered stars: 1 amine (or outer) side, 2 acyl side, 3 side chain; on linkers, the order of the positions; unused ones are H or OH. Square brackets hold non-standard residues; d marks the D form. Peptide text beside a SMILES is read from it. X1 = CO[C@H]([C@@H](C)C(=O)[*:2])[C@@H]1C[C@@H]2C[C@@H]2N1[*:1]; X3 = CO[C@H]([C@@H](C)C(=O)[*:2])[C@@H]1CC[C@H](C)N1[*:1]; X5 = CO[C@H]([C@@H](C)C(=O)[*:2])[C@@H]1C[C@H](F)CN1[*:1]; Dolaproine = CO[C@@H]([C@@H]1CCCN1)[C@@H](C)C(=O)O; Dil = CC[C@H](C)[C@H](NC)[C@@H](CC(=O)O)OC; Phe(2-Cl) = N[C@@H](Cc1ccccc1Cl)C(=O)O; Phe(4-F) = N[C@@H](Cc1ccc(F)cc1)C(=O)O; Phe(2-F) = N[C@@H](Cc1ccccc1F)C(=O)O; NMeV = CN[C@H](C(=O)O)C(C)C

How the values were obtained:
HepG2 tumor cells = assay: In vitro tumor cell proliferation inhibition test (CCK-8), HepG2; type: cell-based; conditions: Homo sapiens, HepG2, 76 hours incubation
Method: (§1) The objective of this experiment is to test the in vitro inhibition effect of the formula (D) according to the present invention on the proliferation of HepG2 tumor cells (human hepatocellular carcinoma cells, Chinese Academy of Sciences cell bank, No. #TCHu 72) and A549 tumor cells (human lung adenocarcinoma, Chinese Academy of Sciences cell bank, No. #TCHu150). The cells were treated with different concentrations of the compound in vitro. After 76 hours incubation, the cell proliferation was detected by CCK-8 reagent (Cell Counting Kit-8, Dojindo, No. CK04), and the activity of the compound in vitro was evaluated according to the IC50 value.
(§2) The following is an example of a method for in vitro proliferation inhibition test of HepG2 cells for the purpose of exemplifying the test of the compounds according to the present invention for the proliferation inhibitory activity on tumor cells in vitro. This method is also applicable to, but not limited to, the in vitro proliferation inhibition tests on other tumor cells.
HepG2 cells in logarithmic growth phase were washed with PBS (phosphate buffer, ThermoFisher) once, and added with 2-3 ml trypsin (0.25% trypsin-EDTA (1×), Gibico, Life Technologies) to digest for 2-3 min. Then, 10-15 ml of cell culture medium (DMEM/F12 medium, Invitrogen; 10% (v/v)) was added after the cells were completely digested. The digested HepG2 cells were eluted, and centrifuged at 1000 rpm for 3 min. The supernatant was discarded, and then 10-20 ml of cell culture medium were added to resuspend the cells to prepare a single cell suspension.
The HepG2 single cell suspension was mixed and the cell density was adjusted to 6×10^4 cells/ml with cell culture medium. The density-adjusted cell suspension was mixed uniformly and added to a 96-well cell culture plate at 100 μl/well. The plates were incubated in a 5% CO2 incubator at 37° C. for 18-20 hours.
(§3) The compound was dissolved with DMSO (dimethylsulfoxide, Shanghai Titan Technology Co., Ltd.) to prepare a storage solution having an initial concentration of 10 mM.
(§4) 10 μl of 10 mM compound was added to the wells of the first column of a U-shaped bottom 96-well plate (sample plate 1), and 90 μl of DMSO was added to each compound sample well of the first column, i.e., the stock solution was diluted 10 times as the starting point. Then, 3-fold gradient dilutions were performed, with each compound concentration […]. The diluent was DMSO solution. 60 μl of 100% DMSO was added to 12th column and 20 μl of 1 mM positive drug control was added to 11th column.
(§5) In a new U-shaped bottom 96-well plate (sample plate 2), each sample from the sample plate 1 was diluted 20 times with the complete medium. Then, in another new U-shaped bottom 96-well plate (sample plate 3), each well sample from the sample plate 2 was subjected to a final 10-fold dilution.
(§6) After the cell pre-culture was completed, the 96-well cell culture plate was removed and the supernatant was discarded. Each sample dilution in the 96-well sample plate 3 was successively added to a 96-well cell culture plate at 100 μl/well. Each compound sample was tested in duplicate at each concentration. […] After completion of the loading operation, the 96-well cell culture plate was incubated at 37° C. for about 76 hours in a 5% CO2 incubator.
(§7) The 96-well cell culture plate was taken and CCK-8 was added to each well at […]. The cell culture plate was gently pat and mixed for more than 10 times and incubated at 37° C. for 2 hours in a 5% CO2 incubator.
(§8) The 96-well cell culture plate was taken and placed in a microplate reader (PerkinElmer, VICTOR 3) and the absorbance at 450 nm was measured using the microplate reader.
(§9) Data was analyzed with Microsoft Excel and Graphpad Prism 5.

A549 tumor cells = assay: In vitro tumor cell proliferation inhibition test (CCK-8), A549; type: cell-based; conditions: Homo sapiens, A549, 76 hours incubation
Method: as §1, §2, §3, §4, §5, §6, §7, §8
In accordance with the above procedure, the inhibition activity of the compound according to the present invention on the proliferation of A549 tumor cells in vitro was tested. The cell culture medium was also DMEM/F12.
as §9

| Compound | IC50 (HepG2 tumor cells) | IC50 (A549 tumor cells) |
| --- | --- | --- |
| CC[C@H](C)[C@@H]([C@@H](CC(=O)N1[C@H]2C[C@H]2C[C@H]1[C@H](OC)[C@@H](C)C(=O)N[C@@H](Cc1ccccc1)C(=O)O)OC)N(C)C(=O)[C@@H](NC(=O)[C@@H](NC)C(C)C)C(C)C [Compound 1, (S)-2-((2R,3R)-3-((1S,3S,5S)-2-((3R,4S,5S)-4-((S)—N,3-dimethyl-2-((S)-3-methyl-2-(methylamino)butanamido)butanamido)-3-methoxy-5-methylheptanoyl)-2-azabicyclo[3.1.0]hexan-3-yl)-3-methoxy-2-methylpropanamido)-3-phenylpropanoic acid] (H-[NMeV]V[Dil][X1]F-OH) | 8.6 nM | 12.8 nM |
| CC[C@H](C)[C@@H]([C@@H](CC(=O)N1[C@H]2C[C@H]2C[C@H]1[C@H](OC)[C@@H](C)C(=O)N[C@@H](Cc1ccccc1Cl)C(=O)O)OC)N(C)C(=O)[C@@H](NC(=O)[C@@H](NC)C(C)C)C(C)C [Compound 2, (S)-3-(2-chlorophenyl)-2-((2R,3R)-3-((1S,3S,5S)-2-((3R,4S,5S)-4-((S)—N,3-dimethyl-2-((S)-3-methyl-2-(methylamino)butanamido)butanamido)-3-methoxy-5-methylheptanoyl)-2-azabicyclo[3.1.0]hexan-3-yl)-3-methoxy-2-methylpropanamido)propanoic acid] (H-[NMeV]V[Dil][X1][Phe(2-Cl)]-OH) | 4.12 nM | 2.33 nM |
| CC[C@H](C)[C@@H]([C@@H](CC(=O)N1[C@@H](C)CC[C@H]1[C@H](OC)[C@@H](C)C(=O)N[C@@H](Cc1ccccc1)C(=O)O)OC)N(C)C(=O)[C@@H](NC(=O)[C@@H](NC)C(C)C)C(C)C [Compound 3, (S)-2-((2R,3R)-3-((2S,5S)-1-((3R,4S,5S)-4-((S)—N,3-dimethyl-2-((S)-3-methyl-2-(methylamino)butanamido)butanamido)-3-methoxy-5-methylheptanoyl)-5-methylpyrrolidin-2-yl)-3-methoxy-2-methylpropanamido)-3-phenylpropanoic acid] (H-[NMeV]V[Dil][X3]F-OH) | 9.33 nM | 16.2 nM |
| CC[C@H](C)[C@@H]([C@@H](CC(=O)N1[C@H]2C[C@H]2C[C@H]1[C@H](OC)[C@@H](C)C(=O)N[C@@H](Cc1ccccc1F)C(=O)O)OC)N(C)C(=O)[C@@H](NC(=O)[C@@H](NC)C(C)C)C(C)C [Compound 7, (S)-2-((2R,3R)-3-((1S,3S,5S)-2-((3R,4S,5S)-4-((S)—N,3-dimethyl-2-((S)-3-methyl-2-(methylamino)butanamido)butanamido)-3-methoxy-5-methylheptanoyl)-2-azabicyclo[3.1.0]hexan-3-yl)-3-methoxy-2-methylpropanamido)-3-(2-fluorophenyl)propanoic acid] (H-[NMeV]V[Dil][X1][Phe(2-F)]-OH) | 283 nM | 776 nM |
| CC[C@H](C)[C@@H]([C@@H](CC(=O)N1C[C@@H](F)C[C@H]1[C@H](OC)[C@@H](C)C(=O)N[C@@H](Cc1ccccc1)C(=O)O)OC)N(C)C(=O)[C@@H](NC(=O)[C@@H](NC)C(C)C)C(C)C [Compound 44, (S)-2-((2R,3R)-3-((2S,4S)-1-((3R,4S,5S)-4-((S)—N,3-dimethyl-2-((S)-3-methyl-2-(methylamino)butanamido)butanamido)-3-methoxy-5-methylheptanoyl)-4-fluoropyrrolidin-2-yl)-3-methoxy-2-methylpropanamido)-3-phenylpropanoic acid] (H-[NMeV]V[Dil][X5]F-OH) | – | 179 nM |
| CC[C@H](C)[C@@H]([C@@H](CC(=O)N1CCC[C@H]1[C@H](OC)[C@@H](C)C(=O)N[C@@H](Cc1ccc(F)cc1)C(=O)O)OC)N(C)C(=O)[C@@H](NC(=O)[C@@H](NC)C(C)C)C(C)C [Compound 46, (S)-2-((2R,3R)-3-((S)-1-((3R,4S,5S)-4-((S)—N,3-dimethyl-2-((S)-3-methyl-2-(methylamino)butanamido)butanamido)-3-methoxy-5-methylheptanoyl)pyrrolidin-2-yl)-3-methoxy-2-methylpropanamido)-3-(4-fluorophenyl)propanoic acid] (H-[NMeV]V[Dil][Dolaproine][Phe(4-F)]-OH) | – | 106 nM |
